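Assay format: 96-well plates, 48-hour exposure. Here, GI50 denotes the concentration required for 50% inhibition of growth. At the TGI there is no net growth.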
Key:
Assay in all cases: growth of human tumour cells (NCI), 48 h
SN12C renal = system: SN12C renal
HOP-92 NSCLC = system: HOP-92 NSCLC
NCI-H460 lung = system: NCI-H460 lung
HS 578T breast = system: HS 578T breast
SF-295 CNS = system: SF-295 CNS
NCI/ADR-RES ovarian = system: NCI/ADR-RES ovarian
SK-MEL-28 melanoma = system: SK-MEL-28 melanoma
EKVX NSCLC = system: EKVX NSCLC
HCC-2998 colon = system: HCC-2998 colon
HL-60(TB) leukemia = system: HL-60(TB) leukemia
COLO 205 colon = system: COLO 205 colon
U251 CNS = system: U251 CNS
SF-539 CNS = system: SF-539 CNS
SF-268 CNS = system: SF-268 CNS
OVCAR-8 ovarian = system: OVCAR-8 ovarian
RXF 393 renal = system: RXF 393 renal
OVCAR-3 ovarian = system: OVCAR-3 ovarian
KM12 colon = system: KM12 colon
SW-620 colon = system: SW-620 colon
MDA-MB-435 = system: MDA-MB-435
HCT-15 colon = system: HCT-15 colon
MDA-MB-231 breast = system: MDA-MB-231 breast
SNB-19 CNS = system: SNB-19 CNS
SR leukemia = system: SR leukemia
MOLT-4 leukemia = system: MOLT-4 leukemia
NCI-H226 lung = system: NCI-H226 lung
BT-549 breast = system: BT-549 breast
HCT-116 colon = system: HCT-116 colon
RPMI-8226 leukemia = system: RPMI-8226 leukemia
UACC-62 melanoma = system: UACC-62 melanoma
A549 NSCLC = system: A549 NSCLC
CCRF-CEM leukemia = system: CCRF-CEM leukemia
NCI-H23 lung = system: NCI-H23 lung
HOP-62 NSCLC = system: HOP-62 NSCLC
ACHN renal = system: ACHN renal
M14 melanoma = system: M14 melanoma
UACC-257 melanoma = system: UACC-257 melanoma
SK-OV-3 ovarian = system: SK-OV-3 ovarian
MCF7 breast = system: MCF7 breast
CAKI-1 renal = system: CAKI-1 renal
786-0 renal = system: 786-0 renal
SK-MEL-2 melanoma = system: SK-MEL-2 melanoma
SK-MEL-5 melanoma = system: SK-MEL-5 melanoma
DU-145 prostate = system: DU-145 prostate
OVCAR-4 ovarian = system: OVCAR-4 ovarian
PC-3 prostate = system: PC-3 prostate
HT29 colon = system: HT29 colon
K-562 leukemia = system: K-562 leukemia
NCI-H522 lung = system: NCI-H522 lung
T-47D breast = system: T-47D breast
TK-10 renal = system: TK-10 renal
IGROV1 ovarian = system: IGROV1 ovarian
OVCAR-5 ovarian = system: OVCAR-5 ovarian
UO-31 renal = system: UO-31 renal
SNB-75 CNS = system: SNB-75 CNS
A498 renal = system: A498 renal
LOX IMVI melanoma = system: LOX IMVI melanoma
MALME-3M melanoma = system: MALME-3M melanoma

Compound: O=C(CC(=O)N1N=C(N(c2ccccc2)c2ccccc2)CC1c1ccccc1)Nc1cccc(Cl)c1 (centres undefined)
- TGI (SN12C renal): > 100 µM
- TGI (HOP-92 NSCLC): > 100 µM
- TGI (NCI-H460 lung): > 100 µM
- TGI (HS 578T breast): > 100 µM
- TGI (SF-295 CNS): > 100 µM
- TGI (NCI/ADR-RES ovarian): > 100 µM
- TGI (SK-MEL-28 melanoma): > 100 µM
- TGI (EKVX NSCLC): > 100 µM
- TGI (HCC-2998 colon): > 100 µM
- TGI (HL-60(TB) leukemia): > 100 µM
- TGI (COLO 205 colon): > 100 µM
- TGI (U251 CNS): > 100 µM
- TGI (SF-539 CNS): > 100 µM
- TGI (SF-268 CNS): > 100 µM
- TGI (OVCAR-8 ovarian): > 100 µM
- TGI (RXF 393 renal): > 100 µM
- TGI (OVCAR-3 ovarian): > 100 µM
- TGI (KM12 colon): > 100 µM
- TGI (SW-620 colon): > 100 µM
- TGI (MDA-MB-435): > 100 µM
- TGI (HCT-15 colon): > 100 µM
- TGI (MDA-MB-231 breast): > 100 µM
- TGI (SNB-19 CNS): > 100 µM
- TGI (SR leukemia): > 100 µM
- TGI (MOLT-4 leukemia): > 100 µM
- TGI (NCI-H226 lung): > 100 µM
- TGI (BT-549 breast): > 100 µM
- TGI (HCT-116 colon): > 100 µM
- TGI (RPMI-8226 leukemia): > 100 µM
- TGI (UACC-62 melanoma): > 100 µM
- TGI (A549 NSCLC): > 100 µM
- TGI (CCRF-CEM leukemia): > 100 µM
- TGI (NCI-H23 lung): > 100 µM
- TGI (HOP-62 NSCLC): > 100 µM
- TGI (ACHN renal): > 100 µM
- TGI (M14 melanoma): > 100 µM
- TGI (UACC-257 melanoma): > 100 µM
- TGI (SK-OV-3 ovarian): > 100 µM
- TGI (MCF7 breast): > 100 µM
- TGI (CAKI-1 renal): > 100 µM
- TGI (786-0 renal): > 100 µM
- TGI (SK-MEL-2 melanoma): > 100 µM
- TGI (SK-MEL-5 melanoma): > 100 µM
- TGI (DU-145 prostate): > 100 µM
- TGI (OVCAR-4 ovarian): > 100 µM
- TGI (PC-3 prostate): > 100 µM
- TGI (HT29 colon): > 100 µM
- TGI (K-562 leukemia): > 100 µM
- TGI (NCI-H522 lung): > 100 µM
- TGI (T-47D breast): > 100 µM
- TGI (TK-10 renal): > 100 µM
- TGI (IGROV1 ovarian): > 100 µM
- TGI (OVCAR-5 ovarian): > 100 µM
- TGI (UO-31 renal): > 100 µM
- TGI (SNB-75 CNS): > 100 µM

Compound: Cn1c(=O)c(Oc2ccc(F)cc2F)cc2cnc(NCC(C)(C)O)nc21
- GI50 (SN12C renal): > 25 µM
- TGI (SN12C renal): > 25 µM
- GI50 (HOP-92 NSCLC): > 25 µM
- TGI (HOP-92 NSCLC): > 25 µM
- GI50 (NCI-H460 lung): > 25 µM
- TGI (NCI-H460 lung): > 25 µM
- GI50 (HS 578T breast): > 25 µM
- TGI (HS 578T breast): > 25 µM
- GI50 (SF-295 CNS): > 25 µM
- TGI (SF-295 CNS): > 25 µM
- GI50 (NCI/ADR-RES ovarian): > 25 µM
- TGI (NCI/ADR-RES ovarian): > 25 µM
- GI50 (SK-MEL-28 melanoma): > 25 µM
- TGI (SK-MEL-28 melanoma): > 25 µM
- GI50 (HCC-2998 colon): > 25 µM
- TGI (HCC-2998 colon): > 25 µM
- GI50 (A498 renal): > 25 µM
- TGI (A498 renal): > 25 µM
- GI50 (HL-60(TB) leukemia): > 25 µM
- TGI (HL-60(TB) leukemia): > 25 µM
- GI50 (COLO 205 colon): > 25 µM
- TGI (COLO 205 colon): > 25 µM
- GI50 (U251 CNS): > 25 µM
- TGI (U251 CNS): > 25 µM
- GI50 (SF-539 CNS): > 25 µM
- TGI (SF-539 CNS): > 25 µM
- GI50 (SF-268 CNS): > 25 µM
- TGI (SF-268 CNS): > 25 µM
- GI50 (OVCAR-8 ovarian): > 25 µM
- TGI (OVCAR-8 ovarian): > 25 µM
- GI50 (RXF 393 renal): > 25 µM
- TGI (RXF 393 renal): > 25 µM
- GI50 (OVCAR-3 ovarian): > 25 µM
- TGI (OVCAR-3 ovarian): > 25 µM
- GI50 (KM12 colon): > 25 µM
- TGI (KM12 colon): > 25 µM
- GI50 (SW-620 colon): > 25 µM
- TGI (SW-620 colon): > 25 µM
- GI50 (LOX IMVI melanoma): > 25 µM
- TGI (LOX IMVI melanoma): > 25 µM
- GI50 (MDA-MB-435): > 25 µM
- TGI (MDA-MB-435): > 25 µM
- GI50 (HCT-15 colon): > 25 µM
- TGI (HCT-15 colon): > 25 µM
- GI50 (MDA-MB-231 breast): > 25 µM
- TGI (MDA-MB-231 breast): > 25 µM
- GI50 (SNB-19 CNS): > 25 µM
- TGI (SNB-19 CNS): > 25 µM
- GI50 (SR leukemia): > 25 µM
- TGI (SR leukemia): > 25 µM
- GI50 (MOLT-4 leukemia): > 25 µM
- TGI (MOLT-4 leukemia): > 25 µM
- GI50 (NCI-H226 lung): > 25 µM
- TGI (NCI-H226 lung): > 25 µM
- GI50 (BT-549 breast): > 25 µM
- TGI (BT-549 breast): > 25 µM
- GI50 (HCT-116 colon): > 25 µM
- TGI (HCT-116 colon): > 25 µM
- GI50 (RPMI-8226 leukemia): > 25 µM
- TGI (RPMI-8226 leukemia): > 25 µM
- GI50 (UACC-62 melanoma): > 25 µM
- TGI (UACC-62 melanoma): > 25 µM
- GI50 (A549 NSCLC): > 25 µM
- TGI (A549 NSCLC): > 25 µM
- GI50 (CCRF-CEM leukemia): > 25 µM
- TGI (CCRF-CEM leukemia): > 25 µM
- GI50 (NCI-H23 lung): > 25 µM
- TGI (NCI-H23 lung): > 25 µM
- GI50 (MALME-3M melanoma): > 25 µM
- TGI (MALME-3M melanoma): > 25 µM
- GI50 (HOP-62 NSCLC): > 25 µM
- TGI (HOP-62 NSCLC): > 25 µM
- GI50 (ACHN renal): > 25 µM
- TGI (ACHN renal): > 25 µM
- GI50 (M14 melanoma): > 25 µM
- TGI (M14 melanoma): > 25 µM
- GI50 (UACC-257 melanoma): > 25 µM
- TGI (UACC-257 melanoma): > 25 µM
- GI50 (SK-OV-3 ovarian): > 25 µM
- TGI (SK-OV-3 ovarian): > 25 µM
- GI50 (MCF7 breast): > 25 µM
- TGI (MCF7 breast): > 25 µM
- GI50 (CAKI-1 renal): > 25 µM
- TGI (CAKI-1 renal): > 25 µM
- GI50 (786-0 renal): > 25 µM
- TGI (786-0 renal): > 25 µM
- GI50 (SK-MEL-2 melanoma): > 25 µM
- TGI (SK-MEL-2 melanoma): > 25 µM
- GI50 (SK-MEL-5 melanoma): > 25 µM
- TGI (SK-MEL-5 melanoma): > 25 µM
- GI50 (DU-145 prostate): > 25 µM
- TGI (DU-145 prostate): > 25 µM
- GI50 (OVCAR-4 ovarian): > 25 µM
- TGI (OVCAR-4 ovarian): > 25 µM
- GI50 (PC-3 prostate): > 25 µM
- TGI (PC-3 prostate): > 25 µM
- GI50 (HT29 colon): > 25 µM
- TGI (HT29 colon): > 25 µM
- GI50 (K-562 leukemia): > 25 µM
- TGI (K-562 leukemia): > 25 µM
- GI50 (NCI-H522 lung): > 25 µM
- TGI (NCI-H522 lung): > 25 µM
- GI50 (T-47D breast): > 25 µM
- TGI (T-47D breast): > 25 µM
- GI50 (TK-10 renal): > 25 µM
- TGI (TK-10 renal): > 25 µM
- GI50 (IGROV1 ovarian): > 25 µM
- TGI (IGROV1 ovarian): > 25 µM
- GI50 (OVCAR-5 ovarian): > 25 µM
- TGI (OVCAR-5 ovarian): > 25 µM
- GI50 (UO-31 renal): > 25 µM
- TGI (UO-31 renal): > 25 µM
- GI50 (SNB-75 CNS): > 25 µM
- TGI (SNB-75 CNS): > 25 µM

Source: PubChem BioAssay (NCI)
